Results published in patent publication US6783949B1, “Processes for determining whether a test substance contains lipases or lipase inhibitors” (Aventis Pharma Deutschland GmbH, priority 1999, dated 2004).

Target: T1, HSL (Rattus norvegicus, UniProt P15304)
T1 construct: The partially purified HSL can be stored at −70° C. for 4 to 6 weeks; from tissue; host or cells: rat epididymal fat cells (male Wistar rats)
T1 sequence (P15304 1-768 isoform P15304-2): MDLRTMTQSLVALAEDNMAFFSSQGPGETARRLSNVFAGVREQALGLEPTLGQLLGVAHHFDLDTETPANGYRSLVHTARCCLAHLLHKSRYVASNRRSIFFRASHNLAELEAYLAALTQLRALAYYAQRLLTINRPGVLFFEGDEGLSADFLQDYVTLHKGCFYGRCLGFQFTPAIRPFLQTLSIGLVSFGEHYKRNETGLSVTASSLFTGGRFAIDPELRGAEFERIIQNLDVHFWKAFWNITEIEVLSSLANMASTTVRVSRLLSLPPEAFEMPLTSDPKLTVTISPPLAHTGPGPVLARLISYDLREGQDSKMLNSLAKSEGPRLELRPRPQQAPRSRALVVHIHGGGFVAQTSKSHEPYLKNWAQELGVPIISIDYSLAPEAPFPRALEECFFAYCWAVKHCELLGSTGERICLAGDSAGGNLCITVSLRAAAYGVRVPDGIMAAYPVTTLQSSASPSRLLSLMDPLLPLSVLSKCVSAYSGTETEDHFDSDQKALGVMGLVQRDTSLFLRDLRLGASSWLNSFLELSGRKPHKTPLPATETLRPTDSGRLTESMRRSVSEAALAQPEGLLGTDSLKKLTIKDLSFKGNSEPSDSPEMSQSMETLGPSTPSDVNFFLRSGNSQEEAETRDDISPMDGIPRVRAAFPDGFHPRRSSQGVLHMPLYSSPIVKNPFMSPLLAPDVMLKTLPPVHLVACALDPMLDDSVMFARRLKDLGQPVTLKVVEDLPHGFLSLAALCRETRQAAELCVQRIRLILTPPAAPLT
Assay: Indirect NAG assay (extinction increase at 481 nm)
Assay type: biochemical
Settings: 60 min
Procedure: A typical reaction is carried out at 30° C. for 60 min, for example in 1.5 ml Eppendorf vessels or 96-hole plates. […] 180 μl of the substrate solution (20 μg/ml of phosphatidylcholine, 10 μg/ml of phosphatidylinositol, 50 μg/ml of NAG in assay buffer) are added. After a preincubation for 15 min at 30° C., 20 μl of HSL in assay buffer are pipetted in and the extinction is immediately measured (see above) at 481 nm in a cuvette photometer (0.5 ml cuvette) or microtiter plate reader. After a certain incubation time, which is variable and depends on the chosen enzyme concentration and can be between 2 and 240 minutes, in this case incubation at 30° C. for 60 min, the extinction is measured again. The increase in the extinction in the yellow region, in this case at 481 nm, is a measure of the enzyme activity.
Isolated rat fat cells are obtained from epididymal fatty tissue from untreated male rats (Wistar, 220-250 g) by collagenase treatment according to published processes. The fat cells from 10 rats are washed three times by flotation with 50 ml each of homogenization buffer ([…], pH 7.4, 0.25 M sucrose, 1 mM ethylenediamine-N,N,N′,N′-tetraacetic acid (EDTA), 1 mM dithiothreitol (DTT), 10 μg/ml of leupeptin, 10 μg/ml of antipain, 20 μg/ml of pepstatin) and finally taken up in 10 ml of homogenization buffer. The fat cells are homogenized in a Teflon-in-glass homogenizer (Braun-Melsungen) by 10 strokes at 1500 rpm and 15° C. The homogenizate is centrifuged (Sorvall SM24 tubes, 5000 rpm, 10 min, 4° C.). The […] between the overlying fatty layer and the pellet is removed and the centrifugation is repeated. The […] resulting from this is centrifuged again (Sorvall SM24 tubes, 20,000 rpm, 45 min, 4° C.). […] After incubation for 60 min at 4° C. (shake at intervals of 15 min), the batch is centrifuged (Sorvall SM24 tubes, 3000 rpm, 10 min, 4° C.). The supernatant is brought to pH 5.2 by addition of glacial acetic acid and incubated at 4° C. for 30 min. […] The suspension is dialyzed overnight at 4° C. against 25 mM TRIS/HCl, pH 7.4, 50% glycerol, 1 mM DTT, and 10 μg/ml of leupeptin, pepstatin, and antipain and then applied to a hydroxylapatite column (0.1 g per 1 ml of suspension, equilibrated with 10 mM potassium phosphate, pH 7.0, 30% glycerol, 1 mM DTT). The column is washed with four volumes of equilibration buffer at a flow rate of 20 to 30 ml/h. The HSL is eluted with a volume of equilibration buffer which contains 0.5 M potassium phosphate, then dialyzed (see above) and concentrated 5 to 10 times by ultrafiltration (Amicon Diaflo PM 10 filter) at 4° C. The partially purified HSL can be stored at −70° C. for 4 to 6 weeks.
6 mg of phosphatidylcholine and 6 mg of phosphatidylinositol are dissolved in 1 ml of chloroform each. 10 mg of NAG are dissolved in 1 ml of chloroform. […] The chloroform (225 μl total volume) is completely removed by overblowing with a stream of N2. The dried substrate can be stored at 4° C. for up to three days. For the preparation of the phospholipid vesicles/micelles having intercalated NAG (on the test day), the dried substrate is taken up in 20 ml of assay buffer (25 mM TRIS/HCl, pH 7.4; 150 mM NaCl) and two ultrasonic treatments with an ultrasonic probe (Branson Sonifier type 11, standard microtip): 1st treatment setting 2, 2×1 min, in between in each case 1 min on ice; 2nd treatment setting 4, 2×1 min, in between in each case 1 min on ice. […] Before use as a substrate (within the next 2 h), the solution is additionally incubated on ice for 15 min.
The assay is carried out at 30° C. for 60 min in 1.5 ml Eppendorf vessels or 96-hole plates.

O=C(CCCCCCCCCCCNc1ccc([N+](=O)[O-])c2nonc12)OCC(O)CO (centres unmarked) [Compound (3)]
Increase in the absorption at 481 nm (NAG 0.075 mg/ml, HSL 40 μg): 15502 ± 1077 arb. units
Increase in the absorption at 481 nm (NAG 0.1 mg/ml, HSL 5 μg): 1521 ± 119 arb. units
Increase in the absorption at 481 nm (NAG 0.1 mg/ml, HSL 20 μg): 6124 ± 577 arb. units
Increase in the absorption at 481 nm (NAG 0.1 mg/ml, HSL 40 μg): 19223 ± 1599 arb. units
Increase in the absorption at 481 nm (NAG 0.15 mg/ml, HSL 5 μg): 1983 ± 155 arb. units
Increase in the absorption at 481 nm (NAG 0.15 mg/ml, HSL 20 μg): 7544 ± 603 arb. units
Increase in the absorption at 481 nm (NAG 0.15 mg/ml, HSL 40 μg): 26730 ± 2069 arb. units
Increase in the absorption at 481 nm (NAG 0.2 mg/ml, HSL 5 μg): 2242 ± 186 arb. units
Increase in the absorption at 481 nm (NAG 0.2 mg/ml, HSL 20 μg): 8898 ± 961 arb. units
Increase in the absorption at 481 nm (NAG 0.2 mg/ml, HSL 40 μg): 31641 ± 2304 arb. units
Increase in the absorption at 481 nm (NAG 0.3 mg/ml, HSL 5 μg): 2489 ± 213 arb. units
Increase in the absorption at 481 nm (NAG 0.3 mg/ml, HSL 20 μg): 9734 ± 825 arb. units
Increase in the absorption at 481 nm (NAG 0.3 mg/ml, HSL 40 μg): 35953 ± 3355 arb. units
Increase in the absorption at 481 nm (PI/PC 0 mg/ml, PI:PC 1:1, HSL 20 μg, NAG 0.05 mg/ml): 134 ± 23 arb. units
Increase in the absorption at 481 nm (PI/PC 0 mg/ml, PI:PC 1:3, HSL 20 μg, NAG 0.05 mg/ml): 89 ± 12 arb. units
Increase in the absorption at 481 nm (PI/PC 0 mg/ml, PI:PC 3:1, HSL 20 μg, NAG 0.05 mg/ml): 173 ± 42 arb. units
Increase in the absorption at 481 nm (PI/PC 0.009 mg/ml, PI:PC 1:1, HSL 20 μg, NAG 0.05 mg/ml): 548 ± 76 arb. units
Increase in the absorption at 481 nm (PI/PC 0.009 mg/ml, PI:PC 1:3, HSL 20 μg, NAG 0.05 mg/ml): 289 ± 77 arb. units
Increase in the absorption at 481 nm (PI/PC 0.009 mg/ml, PI:PC 3:1, HSL 20 μg, NAG 0.05 mg/ml): 1437 ± 132 arb. units
Increase in the absorption at 481 nm (PI/PC 0.018 mg/ml, PI:PC 1:1, HSL 20 μg, NAG 0.05 mg/ml): 1430 ± 188 arb. units
Increase in the absorption at 481 nm (PI/PC 0.018 mg/ml, PI:PC 1:3, HSL 20 μg, NAG 0.05 mg/ml): 692 ± 94 arb. units
Increase in the absorption at 481 nm (PI/PC 0.018 mg/ml, PI:PC 3:1, HSL 20 μg, NAG 0.05 mg/ml): 2610 ± 306 arb. units
Increase in the absorption at 481 nm (PI/PC 0.075 mg/ml, PI:PC 1:1, HSL 20 μg, NAG 0.05 mg/ml): 1138 ± 125 arb. units
Increase in the absorption at 481 nm (PI/PC 0.075 mg/ml, PI:PC 1:3, HSL 20 μg, NAG 0.05 mg/ml): 1679 ± 143 arb. units
Increase in the absorption at 481 nm (PI/PC 0.075 mg/ml, PI:PC 3:1, HSL 20 μg, NAG 0.05 mg/ml): 3365 ± 402 arb. units
Increase in the absorption at 481 nm (PI/PC 0.15 mg/ml, PI:PC 1:1, HSL 20 μg, NAG 0.05 mg/ml): 745 ± 97 arb. units
Increase in the absorption at 481 nm (PI/PC 0.15 mg/ml, PI:PC 1:3, HSL 20 μg, NAG 0.05 mg/ml): 912 ± 103 arb. units
Increase in the absorption at 481 nm (PI/PC 0.15 mg/ml, PI:PC 3:1, HSL 20 μg, NAG 0.05 mg/ml): 2108 ± 256 arb. units
Increase in the absorption at 481 nm (PI/PC 0.3 mg/ml, PI:PC 1:1, HSL 20 μg, NAG 0.05 mg/ml): 335 ± 47 arb. units
Increase in the absorption at 481 nm (PI/PC 0.3 mg/ml, PI:PC 1:3, HSL 20 μg, NAG 0.05 mg/ml): 427 ± 56 arb. units
Increase in the absorption at 481 nm (PI/PC 0.3 mg/ml, PI:PC 3:1, HSL 20 μg, NAG 0.05 mg/ml): 913 ± 102 arb. units
Extinction change at 480 nm (standard conditions, 20 μg of partially purified HSL): 4000 arb. units
